Measured values as given in patent publication US11066396B2 (priority 2016, dated 2021).

Key:
HDAC5 = HDAC5 (Homo sapiens (Human), UniProt Q9UQL6); settings: read-out: HDAC5 IC50
HDAC1 = HDAC1 (Homo sapiens (Human), UniProt Q13547); settings: read-out: HDAC1 IC50
HDAC8 = HDAC8 (Homo sapiens (Human), UniProt Q9BY41); settings: read-out: HDAC8 IC50
Sequence of HDAC8 (Q9BY41 whole entry): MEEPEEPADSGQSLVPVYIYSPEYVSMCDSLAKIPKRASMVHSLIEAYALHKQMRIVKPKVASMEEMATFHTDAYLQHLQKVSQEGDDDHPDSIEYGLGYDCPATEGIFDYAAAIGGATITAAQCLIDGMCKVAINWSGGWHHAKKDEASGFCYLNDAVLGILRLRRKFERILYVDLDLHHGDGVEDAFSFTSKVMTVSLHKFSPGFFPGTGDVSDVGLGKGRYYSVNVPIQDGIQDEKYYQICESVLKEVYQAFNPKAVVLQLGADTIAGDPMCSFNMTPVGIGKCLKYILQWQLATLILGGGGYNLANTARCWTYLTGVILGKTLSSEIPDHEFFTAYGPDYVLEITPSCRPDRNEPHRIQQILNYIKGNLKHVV

Sequence of HDAC1 (Q13547 whole entry): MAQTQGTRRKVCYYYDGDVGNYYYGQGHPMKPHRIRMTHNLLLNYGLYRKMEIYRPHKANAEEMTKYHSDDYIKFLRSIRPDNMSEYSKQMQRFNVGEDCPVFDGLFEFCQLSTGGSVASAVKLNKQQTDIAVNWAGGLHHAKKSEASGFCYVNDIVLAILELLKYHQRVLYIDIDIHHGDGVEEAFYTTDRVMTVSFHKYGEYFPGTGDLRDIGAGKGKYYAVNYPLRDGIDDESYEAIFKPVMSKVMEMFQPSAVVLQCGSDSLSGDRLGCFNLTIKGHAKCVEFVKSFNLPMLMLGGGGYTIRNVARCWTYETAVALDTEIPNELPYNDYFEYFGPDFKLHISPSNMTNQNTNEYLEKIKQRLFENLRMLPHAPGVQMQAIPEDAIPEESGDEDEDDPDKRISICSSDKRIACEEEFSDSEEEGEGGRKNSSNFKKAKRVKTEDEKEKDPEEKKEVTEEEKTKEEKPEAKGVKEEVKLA
Sequence of HDAC5 (Q9UQL6 656-1122): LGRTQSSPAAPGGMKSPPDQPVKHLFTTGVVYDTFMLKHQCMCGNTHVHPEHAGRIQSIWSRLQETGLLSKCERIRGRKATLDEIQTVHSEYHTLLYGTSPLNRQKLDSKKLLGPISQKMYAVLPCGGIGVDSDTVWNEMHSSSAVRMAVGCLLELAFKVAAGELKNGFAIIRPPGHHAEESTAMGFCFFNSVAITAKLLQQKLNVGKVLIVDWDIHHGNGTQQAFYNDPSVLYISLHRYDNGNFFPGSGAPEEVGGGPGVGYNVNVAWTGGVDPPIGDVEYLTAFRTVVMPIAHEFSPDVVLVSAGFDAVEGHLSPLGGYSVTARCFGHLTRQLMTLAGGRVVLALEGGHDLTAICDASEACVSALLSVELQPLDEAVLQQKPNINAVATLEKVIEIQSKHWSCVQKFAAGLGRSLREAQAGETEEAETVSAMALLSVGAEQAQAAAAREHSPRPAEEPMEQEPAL

SMILES | IC50 (HDAC5) | IC50 (HDAC1) | IC50 (HDAC8)
O=C1CCC(c2ccccc2Cl)N1c1cc(F)c(-c2noc(C(F)(F)F)n2)cc1F (racemic) [Example 120, 5-(2-chlorophenyl)-1-(2,5-difluoro-4-(5-(trifluoromethyl)-1,2,4-oxadiazol-3-yl)phenyl)pyrrolidin-2-one] | 79 nM |  | 
O=C(NC(Cc1ccc(-c2noc(C(F)(F)F)n2)cn1)c1cccc(C(F)(F)F)c1)C1CCS(=O)(=O)CC1 (racemic) [Example 477, 1,1-dioxo-N-(2-{5-[5-(trifluoromethyl)-1,2,4-oxadiazol-3-yl]pyridin-2-yl}-1-[3-(trifluoromethyl)phenyl]ethyl)-llambda~6~-thiane-4-carboxamide] | 620 nM | 670 nM | 
CC(C)(C)CC(=O)NC(Cc1ccc(-c2noc(C(F)(F)F)n2)cn1)c1cccc(C(F)(F)F)c1 (racemic) [Example 481, 3,3-dimethyl-N-(2-{5-[5-(trifluoromethyl)-1,2,4-oxadiazol-3-yl]pyridin-2-yl}-1-[3-(trifluoromethyl)phenyl]ethyl)butanamide] | 710 nM | 1100 nM | 
O=C(NC(Cc1ccc(-c2noc(C(F)(F)F)n2)cn1)c1cccc(C(F)(F)F)c1)c1ccccc1 (racemic) [Example 486, N-(2-{5-[5-(trifluoromethyl)-1,2,4-oxadiazol-3-yl]pyridin-2-yl}-1-[3-(trifluoromethyl)phenyl]ethyl)benzamide] | 670 nM | 690 nM | 
O=C(NC(Cc1ccc(-c2noc(C(F)(F)F)n2)cn1)c1cccc(C(F)(F)F)c1)c1ccccn1 (racemic) [Example 488, N-(2-{5-[5-(trifluoromethyl)-1,2,4-oxadiazol-3-yl]pyridin-2-yl}-1-[3-(trifluoromethyl)phenyl]ethyl)pyridine-2-carboxamide] | 670 nM | 880 nM | 
O=S1(=O)CCC(S(=O)(=O)N(Cc2ccc(-c3noc(C(F)(F)F)n3)cc2)c2cccc(C(F)(F)F)c2)C1 (racemic) [Example 492, 1,1-dioxo-N-({4-[5-(trifluoromethyl)-1,2,4-oxadiazol-3-yl]phenyl}methyl)-N-[3-(trifluoromethyl)phenyl]-llambda~6~-thiolane-3-sulfonamide] | 390 nM | 1200 nM | 
O=C(N1CCOCC1)N(Cc1ncc(-c2noc(C(F)(F)F)n2)cn1)c1cccc(C(F)(F)F)c1 [Example 50, N-((5-(5-(trifluoromethyl)-1,2,4-oxadiazol-3-yl)pyrimidin-2-yl)methyl)-N-(3-(trifluoromethyl)phenyl)morpholine-4-carboxamide] | 820 nM | 240 nM | 
Fc1cc(-c2noc(C(F)(F)F)n2)ccc1COc1ccccc1 [Example 168, 3-(3-Fluoro-4-(phenoxymethyl)phenyl)-5-(trifluoromethyl)-1,2,4-oxadiazole] | 1100 nM | 15000 nM | 
FC(F)(F)c1nc(-c2ccc(CNc3[nH]nc4ccccc34)nc2)no1 [Example 430, N-({5-[5-(trifluoromethyl)-1,2,4-oxadiazol-3-yl]pyridin-2-yl}methyl)-2H-indazol-3-amine] |  | 530 nM | 2000 nM
FC(F)(F)c1nc(-c2ccc(CNc3c[nH]nn3)nc2)no1 [Example 431, N-({5-[5-(trifluoromethyl)-1,2,4-oxadiazol-3-yl]pyridin-2-yl}methyl)-1H-1,2,3-triazol-4-amine] |  | 4300 nM | 1900 nM
FC(F)(F)c1nc(-c2ccc(CNc3cnsc3)nc2)no1 [Example 433, N-({5-[5-(trifluoromethyl)-1,2,4-oxadiazol-3-yl]pyridin-2-yl}methyl)isothiazol-4-amine] |  | 890 nM | 900 nM
FC(F)(F)c1nc(-c2ccc(CNc3cnoc3)nc2)no1 [Example 434, N-({5-[5-(trifluoromethyl)-1,2,4-oxadiazol-3-yl]pyridin-2-yl}methyl)isoxazol-4-amine] |  | 1100 nM | 1200 nM
C[Si]1(C)CCC(NCc2ccc(-c3noc(C(F)(F)F)n3)cn2)CC1 [Example 436, 1,1-dimethyl-N-({5-[5-(trifluoromethyl)-1,2,4-oxadiazol-3-yl]pyridin-2-yl}methyl)silinan-4-amine] |  | 1200 nM | 4200 nM
CN(C)C(=O)c1cccc(NCc2ccc(-c3noc(C(F)(F)F)n3)cn2)c1 [Example 438, N,N-dimethyl-3-[({5-[5-(trifluoromethyl)-1,2,4-oxadiazol-3-yl]pyridin-2-yl}methyl)amino]benzamide] |  | 520 nM | 1000 nM
O=C(NCc1ccccn1)c1cccc(NCc2ccc(-c3noc(C(F)(F)F)n3)cn2)c1 [Example 441, N-(pyridin-2-ylmethyl)-3-[({5-[5-(trifluoromethyl)-1,2,4-oxadiazol-3-yl]pyridin-2-yl}methyl)amino]benzamide] |  | 490 nM | 740 nM
NC(=O)c1ccnc(NCc2ccc(-c3noc(C(F)(F)F)n3)cn2)c1 [Example 442, 2-[({5-[5-(trifluoromethyl)-1,2,4-oxadiazol-3-yl]pyridin-2-yl}methyl)amino]pyridine-4-carboxamide] |  | 280 nM | 750 nM

SMILES | IC50 (HDAC5) | IC50 (HDAC1) | IC50 (HDAC8)
CC(C)NC(=O)c1ccccc1NCc1ccc(-c2noc(C(F)(F)F)n2)cn1 [Example 443, N-(1-methylethyl)-2-[({5-[5-(trifluoromethyl)-1,2,4-oxadiazol-3-yl]pyridin-2-yl}methyl)amino]benzamide] |  | 1200 nM | 1400 nM
CNC(=O)c1ccccc1NCc1ccc(-c2noc(C(F)(F)F)n2)cn1 [Example 444, N-methyl-2-[({5-[5-(trifluoromethyl)-1,2,4-oxadiazol-3-yl]pyridin-2-yl}methyl)amino]benzamide] |  | 350 nM | 2500 nM
NC(=O)c1ncccc1NCc1ccc(-c2noc(C(F)(F)F)n2)cn1 [Example 445, 3-[({5-[5-(trifluoromethyl)-1,2,4-oxadiazol-3-yl]pyridin-2-yl}methyl)amino]pyridine-2-carboxamide] |  | 850 nM | 2200 nM
O=C(NC1CC1)c1ccccc1NCc1ccc(-c2noc(C(F)(F)F)n2)cn1 [Example 446, N-cyclopropyl-2-[({5-[5-(trifluoromethyl)-1,2,4-oxadiazol-3-yl]pyridin-2-yl}methyl)amino]benzamide] |  | 240 nM | 1600 nM
O=C(Nc1ccccc1)c1ccccc1NCc1ccc(-c2noc(C(F)(F)F)n2)cn1 [Example 447, N-phenyl-2-[({5-[5-(trifluoromethyl)-1,2,4-oxadiazol-3-yl]pyridin-2-yl}methyl)amino]benzamide] |  | 970 nM | 740 nM
NC(=O)c1cccc(NCc2ccc(-c3noc(C(F)(F)F)n3)cn2)c1 [Example 449, 3-[({5-[5-(trifluoromethyl)-1,2,4-oxadiazol-3-yl]pyridin-2-yl}methyl)amino]benzamide] |  | 310 nM | 1900 nM
O=C1COC[C@@H](CNCc2ccc(-c3noc(C(F)(F)F)n3)cn2)N1 [Example 450, (5R)-5-{[({5-[5-(trifluoromethyl)-1,2,4-oxadiazol-3-yl]pyridin-2-yl}methyl)amino]methyl}morpholin-3-one] |  | 2800 nM | 2800 nM
O=C1COC[C@H](CNCc2ccc(-c3noc(C(F)(F)F)n3)cn2)N1 [Example 451, (5S)-5-{[({5-[5-(trifluoromethyl)-1,2,4-oxadiazol-3-yl]pyridin-2-yl}methyl)amino]methyl}morpholin-3-one] |  | 2500 nM | 2400 nM
FC(F)(F)c1nc(-c2ccc(COc3ncccn3)cc2)no1 [Example 457, 2-({4-[5-(trifluoromethyl)-1,2,4-oxadiazol-3-yl]benzyl}oxy)pyrimidine] |  | 2600 nM | 730 nM
FC(F)(F)c1nc(-c2ccc(COc3ccc4ccccc4n3)nc2)no1 [Example 461, 2-({5-[5-(trifluoromethyl)-1,2,4-oxadiazol-3-yl]pyridin-2-yl}methoxy)quinoline] |  | 500 nM | 21000 nM
CC(C)(C)OC(=O)C1COCC(=O)N1c1ccc(-c2noc(C(F)(F)F)n2)c(F)c1 (stereo not drawn) [Example 468, tert-butyl 4-{3-fluoro-4-[5-(trifluoromethyl)-1,2,4-oxadiazol-3-yl]phenyl}-5-oxomorpholine-3-carboxylate] |  | 940 nM | 5500 nM
O=C(C1CCS(=O)(=O)CC1)N(Cc1cnc(-c2noc(C(F)(F)F)n2)cn1)c1cccc(C(F)(F)F)c1 [Example 470, N-({5-[5-(trifluoromethyl)-1,2,4-oxadiazol-3-yl]pyrazin-2-yl}methyl)-N-[3-(trifluoromethyl)phenyl]tetrahydro-2H-thiopyran-4-carboxamide 1,1-dioxide] |  | 1100 nM | 10000 nM
COC(=O)N1CC(=O)N(Cc2ccc(-c3noc(C(F)(F)F)n3)cn2)c2ccccc21 [Example 472, methyl 3-oxo-4-({5-[5-(trifluoromethyl)-1,2,4-oxadiazol-3-yl]pyridin-2-yl}methyl)-3,4-dihydroquinoxaline-1(2H)-carboxylate] |  | 320 nM | 1400 nM
FC(F)(F)c1nc(-c2cnc(COc3ccc4ccccc4n3)nc2)no1 [Example 473, 2-({5-[5-(trifluoromethyl)-1,2,4-oxadiazol-3-yl]pyrimidin-2-yl}methoxy)quinoline] |  | 160 nM | 45000 nM
O=c1ccc2ccccc2n1Cc1ncc(-c2noc(C(F)(F)F)n2)cn1 [Example 474, 1-({5-[5-(trifluoromethyl)-1,2,4-oxadiazol-3-yl]pyrimidin-2-yl}methyl)quinolin-2(1H)-one] |  | 220 nM | 6000 nM
O=C1CCc2cccc(C(F)(F)F)c2N1Cc1ccc(-c2noc(C(F)(F)F)n2)cn1 [Example 475, 8-(trifluoromethyl)-1-({5-[5-(trifluoromethyl)-1,2,4-oxadiazol-3-yl]pyridin-2-yl}methyl)-3,4-dihydroquinolin-2(1H)-one] |  | 880 nM | 5600 nM
